Measured values published in the Deep4Chem optical property database.
Blank lines part the entries; values can stand above or below the compound they belong to.

Test: solvent given as SMILES

- absorption maximum (in ClCCl): 324 nm
Compound: CCOC(=O)c1c(-c2cc3ccccc3oc2=O)nn(-c2cccc(F)c2)c1C(=O)OCC

- absorption maximum (in ClCCl): 380 nm
Compound: COc1ccc(-c2cc3c(ccc4sc5ccc6sc(-c7ccc(C(C)=O)cc7)cc6c5c43)s2)cc1

- absorption maximum (in ClC(Cl)Cl): 706 nm
- absorption maximum (in ClCCl): 706 nm
Compound: COc1ccc2cc(C3=[N+]4C(=Nc5c(-c6ccccc6)cc(-c6ccc7cc(OC)ccc7c6)n5[B-]4(F)F)C(c4ccccc4)=C3)ccc2c1

- absorption maximum (in ClCCl): 476 nm
Compound: F[B-]1(F)n2c(cc3c4ccccc4c4ccccc4c32)-c2ccc3ccccc3[n+]21

- absorption maximum (in ClCCl): 574 nm
Compound: c1ccc([B-]23Oc4ccccc4-c4c5[n+]6c(c([n+]42)-c2ccccc2O3)-c2ccccc2O[B-]6(c2ccccc2)Oc2ccccc2-5)cc1

- absorption maximum (in ClCCl): 332 nm
Compound: CC(C)(C)c1ccc(-c2nc3c4ccccc4c4ccccc4c3n2-c2ccc(-c3ccc(N(c4ccccc4)c4ccccc4)cc3)cc2)cc1

- absorption maximum (in C1CCOC1): 357 nm
Compound: C1=Cc2ccccc2C(=Cc2ccc(-c3ccc(C=C4c5ccccc5-c5ccccc54)cc3)cc2)c2ccccc21

- absorption maximum (in ClCCl): 388 nm
Compound: c1ccc(B2Nc3cc4c(cc3-c3occc32)NB(c2ccccc2)c2ccoc2-4)cc1

- absorption maximum (in C1CCCCC1): 372.79 nm
Compound: CC(C)c1cc(C(C)C)c(B2c3cc(N4c5ccccc5Oc5ccccc54)ccc3N(c3ccccc3)c3ccc(N4c5ccccc5Oc5ccccc54)cc32)c(C(C)C)c1

- absorption maximum (in CO): 522 nm
- absorption maximum (in ClC(Cl)Cl): 561 nm
Compound: Cc1nc2c(ccc3c2sc(/C=C/c2ccc(N(c4ccccc4)c4ccccc4)cc2)[n+]3C)s1

- absorption maximum (in ClC(Cl)Cl): 422 nm
Compound: CCCN1c2ccccc2Sc2cc(/C=C\c3cc(=O)oc4cc(NC(=O)OCC)ccc34)ccc21

- absorption maximum (in ClC(Cl)Cl): 799 nm
Compound: CN(C)c1ccc(C2=[N+]3C(=Nc4c(-c5ccccc5)cc(-c5ccc(N(C)C)cc5)n4[B-]3(F)F)C(c3ccccc3)=C2)cc1

- absorption maximum (in ClCCl): 568 nm
Compound: CC1=C(c2ccc(N(c3ccccc3)c3ccccc3)cc2)C(C)=[N+]2C1=C(c1c(-c3ccccn3)nc3ccccn13)c1c(C)c(-c3ccc(N(c4ccccc4)c4ccccc4)cc3)c(C)n1[B-]2(F)F

- absorption maximum (in ClC(Cl)Cl): 444 nm
Compound: Cc1ccc(-n2c3ccccc3c3cc(-c4ccc5[n+](c4)[B-](F)(F)n4c-5nc5c6ccccc6c6ccccc6c54)ccc32)cc1

- absorption maximum (in CCO): 439 nm
Compound: OCc1ccc2c3cccc4cccc(c5cccc1c52)c43

- absorption maximum (in CS(C)=O): 405 nm
Compound: Cc1cccn2c1cc1c3ccccc3nc(-c3ccc(Cl)o3)c12

- absorption maximum (in ClCCl): 573 nm
Compound: c1cc2ccc3[o+]c4ccc5cccc6c7cccc8c(c1)c2c3c(c87)c4c56

- absorption maximum (in CO): 528 nm
Compound: CCOC(=O)CCCCCn1c2ccccc2c(=O)c2cc3c(cc21)c(=O)c1ccccc1n3CC

- absorption maximum (in ClCCl): 325 nm
Compound: Cc1ccccc1N1c2sc3ccccc3c2Sc2sc3ccccc3c21

- absorption maximum (in C1CCOC1): 379 nm
Compound: c1ccc(-c2cc(-c3ccccc3)cc(-c3ccc4c(c3)C3(c5cc(-c6cc(-c7ccccc7)cc(-c7ccccc7)c6)ccc5-4)c4ccccc4-c4c3c3c5ccccc5ccc3c3ccccc43)c2)cc1

- absorption maximum (in ClCCl): 286 nm
Compound: c1ccc2c(c1)c1ccccc1c1ccccc21

- absorption maximum (in ClCCl): 506 nm
Compound: COc1ccc(/C=C/C2=[O+][B-](F)(F)OC(/C=C/c3ccc(OC)cc3)=C2c2ccc(OC)cc2)cc1

- absorption maximum (in C1CCOC1): 333 nm
Compound: C(=C(c1ccccc1)c1ccccc1)c1ccc(-c2cc(-c3ccc(C=C(c4ccccc4)c4ccccc4)cc3)cc(-c3ccc(C=C(c4ccccc4)c4ccccc4)cc3)c2)cc1

- absorption maximum (in ClCCl): 391 nm
Compound: Cc1ccc(C(=O)c2c(C)c3ccc4cccc5c6cccc7ccc2c(c76)c3c45)cc1

More lines, now with the values behind:

Compound: CCCCCCCCCCCCOc1cc2c3cc(OCCCCCCCCCCCC)c(OCCCCCCCCCCCC)cc3c3c(cc(OCCCCCCCCCCCC)c4nc5cc(C#Cc6ccc(CCCCCCCCCC)cc6)c(C#Cc6ccc(CCCCCCCCCC)cc6)cc5nc43)c2cc1OCCCCCCCCCCCC
- absorption maximum (in ClC(Cl)Cl): 482 nm

Compound: CN(C)c1ccc(/C=C/c2cc[n+](CCCOCC(COCCC[n+]3ccc(/C=C/c4ccc(N(C)C)cc4)cc3)(COCCC[n+]3ccc(/C=C/c4ccc(N(C)C)cc4)cc3)COCCC[n+]3ccc(/C=C/c4ccc(N(C)C)cc4)cc3)cc2)cc1
- absorption maximum (in C1COCCO1): 460 nm
- absorption maximum (in CC(C)O): 479 nm
- absorption maximum (in CCCCCCCCO): 485 nm
- absorption maximum (in CCCCO): 480 nm
- absorption maximum (in CCCO): 482 nm
- absorption maximum (in CCO): 484 nm
- absorption maximum (in CO): 486 nm
- absorption maximum (in CS(C)=O): 479 nm
- absorption maximum (in ClC(Cl)Cl): 489 nm
- absorption maximum (in ClCCl): 489 nm

Compound: CCCCN1C(=S)c2cccc3cccc(c23)C1=S
- absorption maximum (in CC#N): 437 nm
- absorption maximum (in CS(C)=O): 443 nm
- absorption maximum (in Cc1ccccc1): 442 nm

Compound: CC(C)(C)c1ccc2c(c1)c1cc(C(C)(C)C)ccc1n2-c1ccc(N(c2ccc(-c3ccc(-c4ccc(-c5ccc(-c6ccc(-c7ccc(N(c8ccc(-n9c%10ccc(C(C)(C)C)cc%10c%10cc(C(C)(C)C)ccc%109)cc8)c8ccc(-n9c%10ccc(C(C)(C)C)cc%10c%10cc(C(C)(C)C)ccc%109)cc8)cc7)s6)s5)s4)s3)cc2)c2ccc(-n3c4ccc(C(C)(C)C)cc4c4cc(C(C)(C)C)ccc43)cc2)cc1
- absorption maximum (in ClCCl): 450 nm

Compound: CCCCCc1c(Oc2cc(O)cc(CCC(=O)CC)c2C(=O)OC)c(OC)cc(O)c1C(=O)O
- absorption maximum (in ClC(Cl)Cl): 312 nm

Compound: [NH3+]C(Cc1ccccc1)C(=O)[O-] (stereo not given)
- absorption maximum (in O): 258 nm

Compound: CN(C)c1ccc(-c2ccc(-c3nc(C#N)c(C#N)n3C)cc2)cc1
- absorption maximum (in C1CCCCC1): 333 nm
- absorption maximum (in CC#N): 336 nm
- absorption maximum (in CO): 336 nm
- absorption maximum (in ClC(Cl)Cl): 348 nm

Compound: O=C(NCc1cc(=O)oc2cc(O)c(Br)cc12)c1cccnc1
- absorption maximum (in CC#N): 392 nm
- absorption maximum (in CO): 372 nm
- absorption maximum (in CS(C)=O): 408 nm
- absorption maximum (in O): 330 nm

Compound: Oc1cc2ccc3cc(O)cc4ccc(c1)c2c34
- absorption maximum (in CO): 381 nm

Compound: Nc1ccc(C#Cc2ccc3ccc4ccc(C#Cc5ccc(N)cc5)c5ccc2c3c45)cc1
- absorption maximum (in C1COCCO1): 420 nm
- absorption maximum (in CC(C)=O): 421 nm
- absorption maximum (in CCCCCC): 421 nm
- absorption maximum (in CCCCCCO): 421 nm
- absorption maximum (in CCO): 419 nm
- absorption maximum (in CCOC(C)=O): 419 nm
- absorption maximum (in CO): 415 nm
- absorption maximum (in Cc1ccccc1): 417 nm
- absorption maximum (in ClCCl): 417 nm

Compound: COc1ccc2cc(/C=C/c3ccc([N+](=O)[O-])cc3)c(=O)oc2c1
- absorption maximum (in CC#N): 392 nm

Compound: CC1(C)c2ccccc2N(c2ccc3c(c2)C2(c4cc(N5c6ccccc6C(C)(C)c6ccccc65)ccc4-3)c3ccccc3S(=O)(=O)c3ccccc32)c2ccccc21
- absorption maximum (in Cc1ccccc1): 364 nm

Compound: COc1ccc(-c2cc(C)nc(-c3ccc(-n4c5ccccc5c5ccccc54)cc3)n2)cc1
- absorption maximum (in C1CCOC1): 339 nm
- absorption maximum (in CN(C)C=O): 340 nm
- absorption maximum (in Cc1ccccc1): 341 nm
- absorption maximum (in ClC(Cl)Cl): 342 nm

Compound: CCC1=C(C)C2=C(C)c3c(C)c(CC)c(C)n3[B-](F)(F)[N+]2=C1C
- absorption maximum (in C1CCCCC1): 522.5 nm
- absorption maximum (in C1CCOC1): 518.4 nm
- absorption maximum (in C1COCCO1): 518.6 nm
- absorption maximum (in CC#N): 514.8 nm
- absorption maximum (in CC(C)=O): 516 nm
- absorption maximum (in CC(C)O): 518.8 nm
- absorption maximum (in CCC(C)C): 520.4 nm
- absorption maximum (in CCCCCC): 521.1 nm
- absorption maximum (in CCCCCCCC): 521.2 nm
- absorption maximum (in CCCCCCCCCCO): 521.8 nm
- absorption maximum (in CCCCCCCCO): 521 nm
- absorption maximum (in CCCCCCO): 520.4 nm
- absorption maximum (in CCCCO): 519.4 nm
- absorption maximum (in CCCO): 518.9 nm
- absorption maximum (in CCO): 517.7 nm
- absorption maximum (in CCOC(C)=O): 516.4 nm
- absorption maximum (in CCOCC): 518.8 nm
- absorption maximum (in CN1CCCC1=O): 518.2 nm
- absorption maximum (in CN(C)C=O): 517.1 nm
- absorption maximum (in CO): 516.2 nm
- absorption maximum (in Cc1ccccc1): 522.5 nm
- absorption maximum (in ClCCl): 520 nm
- absorption maximum (in OCC(F)(F)F): 515.7 nm
- absorption maximum (in OCCO): 518 nm
- absorption maximum (in OCCOc1ccccc1): 522.3 nm
- absorption maximum (in c1ccccc1): 522.7 nm

Compound: CCOC(=O)c1sc2nc(C)c(CC)c(C#N)c2c1N
- absorption maximum (in c1ccccc1): 412 nm

Compound: CCCCCCOc1cc(C=O)c(OCCCCCC)cc1C=O
- absorption maximum (in ClCCl): 403 nm

Compound: CCN(CC)c1ccc(-c2ccc(-c3nc4ccccc4c(=O)[nH]3)s2)cc1
- absorption maximum (in CC#N): 404 nm
- absorption maximum (in Cc1ccccc1): 410 nm

Compound: CC1=CC(C)=[N+]2C1=C(c1ccc(I)cc1)c1c(C)cc(C)n1[B-]2(F)F
- absorption maximum (in ClC(Cl)Cl): 504 nm

Compound: c1ccc(-c2ccc(-c3ccccc3)cc2)cc1
- absorption maximum (in C1CCOC1): 281 nm
- absorption maximum (in C1COCCO1): 276 nm
- absorption maximum (in CCO): 280 nm

Compound: N#Cc1ccc(-n2cccc2)cc1
- absorption maximum (in C1CCOC1): 287 nm
- absorption maximum (in CC#N): 287 nm
- absorption maximum (in CCCCCC): 287 nm
- absorption maximum (in CCOCC): 287 nm
- absorption maximum (in ClCCl): 287 nm

Compound: CCN(CC)c1ccc(-c2nc3cc(C(NC(=O)OC(C)(C)C)C(=O)OC)ccc3o2)c(O)c1 (stereo not given)
- absorption maximum (in CC1CCCCC1): 364 nm
- absorption maximum (in CC#N): 364 nm
- absorption maximum (in CO): 364 nm

Compound: CC(=O)Nc1ccc2ccc3cccc4ccc1c2c34
- absorption maximum (in CC#N): 339 nm
- absorption maximum (in CCCCOCCCC): 341 nm
- absorption maximum (in CO): 338 nm

Compound: CC(C)(C)c1ccc(N2c3ccc(C(C)(C)C)cc3B3c4cc(C(C)(C)C)ccc4N(c4ccc(C(C)(C)C)cc4)c4cc(-n5c6ccc(C(C)(C)C)cc6c6cc(C(C)(C)C)ccc65)cc2c43)cc1
- absorption maximum (in Cc1ccccc1): 451 nm

Compound: COC(=O)c1nc2cnc(N(C)C)nc2n1Cc1ccccc1
- absorption maximum (in C1COCCO1): 358 nm
- absorption maximum (in CC#N): 359 nm
- absorption maximum (in CO): 362 nm
- absorption maximum (in ClCCl): 362 nm

Compound: Cc1cc(C)c(C2=C3C=C(c4ccccc4)C(c4ccccc4)=[N+]3[B-](F)(F)n3c2cc(-c2ccccc2)c3-c2ccccc2)c(C)c1
- absorption maximum (in C1CCCCC1): 590 nm
- absorption maximum (in C1CCOC1): 587 nm
- absorption maximum (in CC#N): 578 nm
- absorption maximum (in Cc1ccccc1): 592 nm
- absorption maximum (in ClCCl): 585 nm

Compound: Cc1cc(=O)oc2cc3c4ccc(C(C)(C)C)cc4c4cc(C(C)(C)C)ccc4c3cc12
- absorption maximum (in ClC(Cl)Cl): 385 nm

Compound: Cc1ccc(N2C(c3ccccc3N(C)C)=NC(c3ccccc3)C2c2ccccc2)cc1 (stereo not given)
- absorption maximum (in Cc1ccccc1): 275 nm

Compound: COc1ccccc1
- absorption maximum (in C1CCCCC1): 267.24 nm
